Test results reported in US20070105162A1, “Monovalent avidin and streptavidin compositions” (Massachusetts Institute of Technology, priority 2005, published 2007).

Tests used:
[1] = tested on: biotinylated AP-CFP-TM on HeLa cells; experiment: Staining of biotinylated AP-CFP-TM on HeLa with Alexa Fluor 568-conjugated avidins; assay type: cell-based; details: avidin, Alexa Fluor 568 conjugate
Experimental: Enzymatic biotinylation and imaging of HeLa transfectants are performed as previously described (Howarth, M. et al., Proc. Natl. Acad. Sci. USA 102: 7583-7588, 2005), except instead of 10 μM biotin and 1 mM ATP, we add 10 μM biotin-AMP (synthesized according to Coleman and Huang; Coleman, T. M. and Huang, F. Chem. Biol. 9: 1227-1236, 2002) to give equivalent biotinylation but minimizing the risk of purinoreceptor activation by ATP (Rathbone, M. P. et al., Prog. Neurobiol. 59: 663-690, 1999). […] Biotinylation of neurons is performed at day in vitro (DIV) 8 in Hanks' Balanced Salt Solution (HBSS) (Invitrogen) with 0.2 μM biotin ligase and 10 μM biotin-AMP for 5 min at 37° C. […] Neurons are washed with NeuroBasal media (Invitrogen) supplemented with B-27 (Invitrogen), 50 U/mL penicillin, 50 μg/mL streptomycin, and 0.2 mM L-glutamine and chased in the same medium for 0 or 2 hr at 37° C. Cells are then fixed in −20° C. methanol. There was no signal from wild-type avidin labeling if neurons were instead transfected with Ala-neuroligin-1 containing a point mutation in AP, confirming the specificity of labeling. […]
Images of HeLa cells are collected on a Zeiss Axiovert 200M inverted epifluorescence microscope using a 40× oil-immersion lens and a MicroMAX CCD camera (Roper Scientific; Tucson, Ariz.). CFP (420DF20 excitation, 450DRLP dichroic, 475DF40 emission) and Alexa568 (560DF20 excitation, 585DRLP dichroic, 605DF30 emission) images are collected and analyzed using OpenLab software (Improvision; Lexington, Mass.). Fluorescence images are background-corrected. […] Images are scaled to 16 bits and analyzed in Northern Eclipse (Empix Imaging; Ontario, Canada) with user-written software. […] Results are then calculated in terms of clusters per micrometer of dendrite. For assessment of pre-synaptic terminals, clusters are determined as before and average grey levels of clusters are compared between transfected dendrites and untransfected dendrites within the same field of view. […] “n” represents the number of transfected neurons for which clusters were measured. […]

[2] = Electrospray ionization mass spectrometry: biotin molecules bound per streptavidin tetramer; assay type: binding; details: for # biotins (bound to each tetramer): from mass change upon addition of biotin, 30 μM protein, 200 μM biotin; for biotin binding per tetramer by mass spectrometry (in words): spectra with or without biotin
Experimental: Biospin columns (Bio-Rad) were equilibrated by spinning 5 times in 500 μL of 15 mM ammonium acetate pH 7.8 at 1000 g for 2 min. Then 30-50 μL of 30 μM protein in PBS was buffer-exchanged into 15 mM ammonium acetate pH 7.8 using the pre-equilibrated Biospin columns by spinning for 20 s at 1000 g. To ensure that PBS was completely removed, the flow-through was again buffer-exchanged with a second pre-equilibrated column for 20 s. This procedure also removed free biotin when the starting 30 μM streptavidin forms were incubated with 200 μM biotin. Less than 2 min before introducing into the mass spectrometer, the buffer-exchanged samples were diluted with a solution of 1:1 15 mM ammonium acetate pH 7.8 and 78% acetonitrile, 0.01% trifluoroacetic acid.
An Advion nanospray robot (Advion BioSystems, Ithica, N.Y.) with a back-pressure of 0.45 Psi introduced the samples into the mass spectrometer, an 8.5 Tesla custom-built Electrospray Ionisation-Fourier Transform Mass Spectrometer. To visualize the non-covalent tetramers and non-covalent biotin binding in the high m/z range, the following settings were used: Chirp rate=750 Hz, Amplitude=0.5 V p-p, Tube lens=200 V, Capillary heater 2 V, Quad filter=−20 V, Skimmer=0 V, Capillary offset=34 V, X-fer=−110 V, Leak gas=4.2×10^−5 Torr. The capillary heater was kept low and the Quad filter and Skimmer were kept either high or off to prevent subunit dissociation. The transfer was set to this low value of −110 V in order to visualize the high m/z region.
The masses were calculated manually by first determining the charge state. The final mass was determined by multiplying the observed m/z by the charge and subtracting the mass corresponding to the addition of protons to give that charge. For example, for the 15+charge state of D4 an m/z of 3534.159 was obtained. (15×3534.159)-(15×1.00727) gave a mass for this ion of 52,997 Da. This calculation was repeated for each charge state and the mean and standard deviation reported. The spectra were calibrated with tetrameric streptavidin, after its monomer mass was determined under denaturing conditions (Mr=13,271.4 Da). Average masses were predicted from the DNA sequence, using the ExPASy PeptideMass Calculator (ca.expasy.org/tools/peptide-mass.html) and assuming removal of the N-terminal formyl-Methionine.
The different tetramers were purified using a Ni-nitrilotriacetic acid (NTA) column, eluting according to the number of His6-tags with increasing concentrations of imidazole. […] The tetramer composition was further confirmed by boiling the samples before loading on SDS-PAGE, to determine the ratio of A to D subunits (FIG. 1D), and by electrospray ionization mass spectrometry. In Table 1 (Schwartz, B. L. et al., J. of the Amer. Soc. for Mass Spec. 6: 459-465, 1995) the observed mass (±s.d.), determined by Electrospray Ionization-Mass Spectrometry, is compared to the mass predicted from the sequence. From the change (±s.e.m.) upon addition of biotin (mass 244.31), we determined how many biotin molecules were bound to each tetramer.
Electrospray ionization mass spectrometry was used to characterize the number of biotin molecules bound per tetramer. Spectra of the different streptavidin tetramers with or without biotin were acquired. […] The other chimeric tetramers bound one biotin per A subunit.

[3] = Thermostability assay of streptavidin tetramer (SDS-PAGE); assay type: physicochemical; details: 100° C., 3 min in PBS

Substance	Alexa staining of biotinylated AP-CFP-TM [1]	# biotins (bound to each tetramer) [2]	biotin binding per tetramer by mass spectrometry (in words) [2]	fraction remaining tetrameric on heating [3]
D4: Streptavidin tetramer with 4 dead subunits (D: N23A, S27D, S45A, SEQ ID NO:3) [Tetramer D4]	no detectable staining	0	No biotin binding	
A1D3: Monovalent streptavidin tetramer: one His6-tagged wild-type (A) subunit and three dead (D) subunits [Tetramer A1D3]	detected equally well	1	single biotin	significant fraction
